According to US8697629B2, “Modulation of intracellular signaling” (Angstrom Pharmaceuticals, Inc., priority 2010, dated 2014):

What was measured:
Type in all cases: cell-based
SKOV3 cells = test: Adhesion of SKOV3 cells to hyaluronic acid; settings: immobilized HA; 1 or 10 uM Å6; 20 ng/ml IM7
Procedure: (§1) In FIG. 11 SKOV3 cells were cultured overnight with or without 10 μM Å6 or 100 ng/ml PMA. The cells were then detached, washed and loaded with 20 μg/ml CFDA-SE for 30 min at 37° C. After washing, the cells were resuspended in PBS containing 10% FCS and triplicate aliquots representing 100,000 cells incubated for 30 min at room temperature with no additions, 1 or 10 uM Å6 or with 20 ng/ml IM7, a blocking anti-CD44 rat monoclonal antibody. The cells were then placed into microtiter wells that had been coated with 50 μL of 1 mg/mL HA overnight and blocked for 30 min with 10% FCS. The cells were allowed to adhere at room temperature for 30 minutes after which, the wells were decanted and washed 3 times. The fluorescence in each well was assessed (excit./emiss.: 460/536 nm) and the mean fluorescence values (+/standard deviation) of the triplicate determinations calculated.

CD44 = molecular target: T1, CD44 (Homo sapiens, UniProt P16070); test: IM7 binding to SKOV3 cells, FACs analysis; settings: IM7 1 μg/ml, 4° C.
T1 construct: endogenous in cells; host or cells: SKOV3 cells
Procedure: In FIGS. 14a and 14b SKOV3 cells were incubated with the indicated concentrations of Å6 for 30 min at 4° C. IM7 (1 μg/ml) was then added and allowed to bind for 30 min at 4° C., after which the cells were washed and incubated with FITC-donkey anti-rat IgG for 30 min at 4° C. The cells were washed once and then subjected to FACs analysis.

MEK = MEK phosphorylation (S217/221) in SKOV3 cells, immunoblot and densitometry
Procedure: Cells were detached from their culture vessels by brief trypsinization, suspended in complete media and centrifuged at 250×g for 10 min at room temperature. The cell pellets were suspended in Dulbeco's phosphate buffered saline (DPBS) and re-centrifuged for a total of three washes. The cells were then re-suspended at 3.33E5/ml in 24 ml of either RPMI containing 0.5% BSA (Sigma Chem. Co. #A0336) (RPMI/BSA) or the conditioned media of growing NIH3T3 fibroblasts (10% FBS in DMEM) supplemented with 10 ng/ml vascular endothelial growth factor (VEGF) (CMN). The cells were then treated with or without 100 ug/ml soluble hyaluronic acid (HA; human umbilical, Calbiochem #385902) for 30 min at 37° C. under 5% CO2. Aliquots representing 2E6 cells were then plated into 10 cm culture dishes and A6 added to yield final concentrations of 0, 10, 100 and 1000 nM. The cells were cultured overnight (18 hr) at 37° C. under 5% CO2.
After 18 hr of treatment, the media were aspirated from the 10 cm dishes and saved. The plates were washed 3 times with 4 ml of ice-cold DPBS which were pooled with the reserved non-adherent cells. The non-adherent cells were centrifuged at 250×g for 10 min at 4° C., washed twice with cold DPBS, drained and lysed in 50 ul of cold RIPA buffer (ThermoScientific #89901) containing cocktails of broad spectrum phosphatase inhibitors (Calbiochem #524625; used at 2× final concentration) and protease inhibitors (Sigma #P8340) (RIPA/inh.). The 10 cm dishes were drained of remaining wash and the adherent cells lysed by scraping in 200 μL of cold RIPA/inh. For each test condition, the lysates of the non-adherent and adherent populations were combined, vortexed and then centrifuged at 14,000 rpm at 4° C. for 20 min. Aliquots of the cleared lysates were frozen at −80° C. immediately. A small aliquot was reserved for total protein analysis using a BCA Protein Assay Kit (Calbiochem #71285-3).
Samples representing 20 μg of total protein of each lysate were solubilized in the presence of 50 mM Tris pH 6.8, 10% glycerol, 2% SDS and 100 mM DTT for 5 min at 95° C. and then loaded onto 10-20% acrylamide gels (BioRad #345-0044, Tris-HCl, 1 mm, 26 well, 15 μL/well). Electrophoresis was performed using Laemli electrophoresis buffer (0.1% SDS, 25 mM Tris, 192 mM glycine) at 200 V, constant voltage, for one hour. Upon completion of electrophoresis, the proteins were transferred to Immun-Blot PVDF membranes (BioRad #162-0238) in ice-cold 20% methanol in 25 mM Tris, 192 mM glycine for 2 hr at 0.5 Amps, constant current/blotting apparatus. […]
The integrated densities (id) of the bands of interest were measured using Image J software (NIH). […]

A2780 cells = test: Adhesion of A2780 cells to hyaluronic acid; settings: immobilized HA; 1 or 10 μM Å6
Procedure: as §1, with “12 A2780” for “11 SKOV3”, “μM” for “uM”, “ul” for “μL”, “mg/ml” for “mg/mL”, “min” for “minutes”

T1 sequence (P16070 21-742): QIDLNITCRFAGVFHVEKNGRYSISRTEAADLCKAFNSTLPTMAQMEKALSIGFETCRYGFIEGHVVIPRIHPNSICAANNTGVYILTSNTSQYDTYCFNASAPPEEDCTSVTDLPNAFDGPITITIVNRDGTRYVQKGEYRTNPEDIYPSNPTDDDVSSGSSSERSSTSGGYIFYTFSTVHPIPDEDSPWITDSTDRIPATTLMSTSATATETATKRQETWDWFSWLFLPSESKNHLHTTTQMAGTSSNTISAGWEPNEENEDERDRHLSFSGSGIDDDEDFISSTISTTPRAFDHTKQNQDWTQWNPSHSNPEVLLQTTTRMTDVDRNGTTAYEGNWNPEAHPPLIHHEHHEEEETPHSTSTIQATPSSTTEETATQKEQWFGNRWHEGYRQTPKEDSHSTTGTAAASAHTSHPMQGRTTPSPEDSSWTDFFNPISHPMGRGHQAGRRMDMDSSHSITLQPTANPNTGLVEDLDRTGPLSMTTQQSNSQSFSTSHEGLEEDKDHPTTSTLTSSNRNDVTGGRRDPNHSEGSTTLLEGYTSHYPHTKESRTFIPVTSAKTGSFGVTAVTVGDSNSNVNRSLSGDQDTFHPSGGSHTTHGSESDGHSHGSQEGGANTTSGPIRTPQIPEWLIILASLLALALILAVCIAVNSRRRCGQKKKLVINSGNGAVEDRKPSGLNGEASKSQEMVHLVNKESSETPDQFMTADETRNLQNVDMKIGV

## acetyl-Lys-Pro-Ser-Ser-Pro-Pro-Glu-Glu-NH2 (Ac-KPSSPPEE-NH2) [Å6]
SKOV3 cells
  SKOV3 binding to HA: enhanced
CD44
  IM7 antibody binding to SKOV3 cells: increase in antibody binding with increasing concentration
MEK; CM/V
  CM/V-increased pMEK/MEK ratios: potentiated this response
MEK; under all conditions
  pMEK/MEK: enhanced
A2780 cells
  binding of A2780 cells to HA: does not substantially modulate
